These results are taken from PubChem BioAssay (NCI).

Values joined by “and” are separate entries in the source; they are usually repeats but may differ in a detail not shown here. Identical values can stand only once.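 Step 1: Grow cells in 96-well plates. Step 2: Expose to compound for 48 hours at 5 concentrations. Step 3: Interpolate endpoints linearly; if unreached, use highest concentration. Abbreviation: GI50, concentration required for 50% inhibition of growth. TGI denotes the concentration required for complete inhibition of growth.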 Where a SMILES comes first, the peptide text is derived from it. [ ]: non-standard residue; d: D form. The star is where a group is joined. ξ: configuration not given here. X6 = FC(F)(F)c1cc(NC(=S)*)cc(C(F)(F)F)c1; ξF = NC(Cc1ccccc1)C(=O)O

The test deals with MDA-MB-468 breast. The test is described as follows: inhibition of tumour cell growth, NCI panel, 48 h.
With `O=C(/C=C/C12c3ccccc3C(c3ccccc31)C1C(=O)NC(=O)C12)c1ccncc1` (stereo not given), the GI50 is 1820 nM and the TGI turned out to be 4020 nM.
On to `Nc1nc(-c2cccc([N+](=O)[O-])c2)c(N=Nc2cccc([N+](=O)[O-])c2)s1`, for which the GI50 was 30500 nM and the TGI was greater than 100000 nM.
For the compound `COC1CCC(N2C(=O)CNc3ncc(-c4ccc(C(C)(C)O)nc4)nc32)CC1` (stereo not given), the GI50 is 430 nM and 407 nM; the TGI was 3510 nM and 5380 nM.
As for `CCCCCN(CCCCC)CCCNc1c2c(nc3ccc(Cl)cc13)CCCC2`, the GI50 is 2440 nM and the TGI turned out to be 6310 nM.
For `Cc1ccc(C(=O)/C(=C/c2ccc([N+](=O)[O-])cc2)SCc2ccc(Cl)cc2)cc1` the same measures were 2760 nM and 7460 nM.
For `C#Cc1ccc(-n2c(/C=C/c3ccc(C(F)(F)F)cc3)nc3ncccc3c2=O)cc1` the same measures were 1510 nM and 3630 nM.
Take `Cc1nc2ccccc2c(N)c1-c1cc(C)c2c(C)nc3ccccc3c2n1`: the GI50 was 1640 nM and the TGI worked out at 3730 nM.
For `NC(=O)c1sc(-n2cnc3ccccc32)cc1OCc1ccccc1Br` the same measures were 340 nM and 2180 nM.
In the case of `COc1ccc2[nH]cc(-c3csc4nc(-c5ccccc5)cn34)c2c1`, the GI50 is 362 nM and the TGI was determined as 2070 nM.
The corresponding values for `O=C1CC(c2ccc3c(c2)OCO3)Nc2ccccc21` (stereo not given) are 4220 nM and 23900 nM.
For the compound `COc1ccc2c(C3=C(c4cn(C)c5ccccc45)C(=O)NC3=O)cn(C)c2c1`, the GI50 is 112 nM and the TGI was 10200 nM.
Turning to `CC/C=C\CCC/C=C1/C(=O)C=C[C@@H]1C/C=C\CCCC(=O)OC`, the GI50 is 3200 nM and the TGI was found to be 10100 nM.
For `O=C1/C(=C/c2cccc([N+](=O)[O-])c2)COc2ccc(O)cc21` the same measures were 2260 nM and 5000 nM.
For `CCCCCN(CCCCC)CC(O)c1cc(C)c2ccc3cc(C(C)C)ccc3c2c1` (stereo not given) the same measures were 1740 nM and 3290 nM.
As for `COC1=CC(c2ccc[nH]2)=N/C1=C\c1[nH]c(C)c(C(=O)OC(C)C)c1C`, the GI50 was 111 nM and the TGI is 1390 nM.
For `OCc1ccc(N2CCC2c2ccc(F)cc2)cc1Cl` (stereo not given) the same measures were 30.4 nM and 251 nM.
The corresponding values for `CCC(CO)Nc1nc2ccc(Cl)cc2c2ccccc12` (stereo not given) are 5280 nM and 19500 nM.
The corresponding values for `Cn1cc(C2=C(c3cn(C)c4ncccc34)C(=O)NC2=O)c2ccccc21` are 5470 nM and greater than 25000 nM.
For `CC(C)CCC[C@@H](C)[C@H]1CC[C@H]2[C@@H]3CC=C4C[C@@H](C(C(=O)O)C(=O)O)CC[C@]4(C)[C@H]3CC[C@]12C`, the GI50 was 337 nM and the TGI came out at 892 nM.
As for `COC(=O)[C@@H](NC(=O)CNC(=O)[C@H]1CCCN1C(=O)C(Cc1ccccc1)NC(=S)Nc1cc(C(F)(F)F)cc(C(F)(F)F)c1)C(C)C` (stereo not given in full) (X6-[ξF][dP]GV-OMe), the GI50 was 1500 nM and the TGI is 3230 nM.
On to `O=C(Nc1ccc(Cl)c(Cl)c1)Nc1ccc(Cl)c(Cl)c1`, for which the GI50 is 1840 nM and 2210 nM; the TGI is 6690 nM and 6100 nM.
As to `CO[C@H](C(=O)[C@@H](O)[C@@H](C)O)[C@@H]1Cc2cc3cc(O[C@H]4C[C@@H](O[C@H]5C[C@@H](O)[C@H](O)C(C)O5)[C@H](O)C(C)O4)c(C)c(O)c3c(O)c2C(=O)[C@H]1O[C@H]1C[C@@H](O[C@H]2C[C@@H](O[C@H]3C[C@](C)(O)C(=O)C(C)O3)[C@@H](O)C(C)O2)[C@H](O)C(C)O1` (stereo not given in full), the GI50 is 68.4 nM and the TGI was 515 nM.
For `Clc1ccc2c(NCCCCNc3nc(N4CCCCC4)nc4ccccc34)ccnc2c1` the same measures were 1640 nM and 3630 nM.
For `COc1cc(-c2nn(-c3ccc(NC(=O)c4ccc(Cl)c(C(F)(F)F)c4)cc3)cc2-c2ccncc2)ccc1Cl` the same measures were 2950 nM and 16000 nM.
Regarding `NC(=O)c1cccc2cn(-c3ccc([C@@H]4CCCNC4)cc3)nc12`, the GI50 was 6090 nM and the TGI turned out to be 18900 nM.
